Experiments:
RSV/RAT-1 [1] = experiment: Monolayer growth, RSV/RAT-1; assay type: cell-based; settings: read-out: Monolayer Growth IC50
Experimental: (§1) Cells were plated into multi-well plates at 10 to 20,000 cells/mL. Forty-eight hours after seeding, compounds were added to the cell growth medium and incubation was continued for 2 additional days. Cells were then removed from the wells by incubation with trypsin and enumerated with a Coulter counter. Growth in soft-agar.

K-Balb 3T3 = experiment: 3H-Thymidine incorporation, PDGF-stimulated, K-Balb 3T3; assay type: cell-based; settings: K-Balb 3T3, PDGF-stimulated
Experimental: (§2) Cells were plated in multi-well plates and grown to near confluence. The media was then removed and replaced with growth media containing 1% bovine serum albumin. After 24-hour serum starvation, compounds and specific growth factors were added and incubations continued for an additional 24 hours. During the final 2 hours, 3H-thymidine was added to the medium. To terminate the incubations, the medium was removed and cell layers washed twice with ice-cold phosphate-buffered saline. After the final wash, ice-cold 5% trichloroacetic acid was added and the cells incubated for 15 minutes at room temperature. The trichloro-acetic acid solution was then removed and the cell layer washed three times with distilled water. After the final wash, the cell layer was solubilized by addition of 2% sodium dodecylsulfate. Radioactivity in this solution was determined by scintillation counting.

[2] = system: Protein kinase C (rat brain homogenate c-PKC mixture); experiment: Kinase selectivity: Protein kinase C; assay type: biochemical; settings: 50 μM concentration
v-Src = v-Src (Rous sarcoma virus (strain Schmidt-Ruppin A), UniProt P00524); experiment: Kinase selectivity: v-Src; assay type: biochemical; settings: 50 μM concentration
MEK [3] = target: T1, MEK (Homo sapiens, UniProt Q02750); assay type: biochemical; settings: order of addition experiments
Experimental: Incorporation of ^32 P into myelin basic protein (MBP) was assayed in the presence of a glutathione S-transferase fusion protein containing p44MAP kinase (GST-MAPK) and a glutathione S-transferase fusion protein containing p45MEK (GST-MEK). […] Compounds were assessed at 10 μM for ability to inhibit incorporation of ^32 P.
To ascertain whether compounds were inhibiting GST-MEK or GST MAPK, two additional protocols were employed. In the first protocol, compounds were added to tubes containing GST-MEK, followed by addition of GST-MAPK, MBP and [γ-^32 P]ATP. In the second protocol, compounds were added to tubes containing both GST-MEK and GST-MAPK, followed by MBP and [γ-^32 P]ATP.

EGFR/Swiss 3T3 [4] = experiment: Growth in soft-agar, EGFR/Swiss 3T3; assay type: cell-based; settings: EGFR/Swiss 3T3, anchorage independent (soft agar clonogenicity)
Experimental: (§3) Cells were seeded into 35-mm dishes at 5 to 10,000 cells/dish using growth medium containing 0.3% agar. After chilling to solidify the agar, cells were transfered to a 37° C. incubator. After 7 to 10 days growth, visible colonies were manually enumerated with the aid of a dissecting microscope.

MAP kinase [5] = experiment: In vitro MAP kinase assay; assay type: biochemical; settings: 50 μM concentration
Experimental: Inhibitory activity was also confirmed in direct assays. For MAP kinase, 1 μg GST-MAPK was incubated with 40 μg MBP for 15 minutes at 30° C. in a final volume of 50 μL containing 50 mM Tris (pH 7.5), 10 μM MgCl2, 2 μM EGTA, and 10 μM [γ-^32 P]ATP. The reaction was stopped by addition of Laemmli SDS sample buffer and phosphorylated MBP resolved by electrophoresis on a 10% polyacrylamide gel. Radioactivity incorporated into MBP was determined by autoradiography, and subsequently by excision of the bands followed by scintillation counting.

RSV/RAT-1 [6] = experiment: Growth in soft-agar, RSV/RAT-1; assay type: cell-based; settings: read-out: Agar Growth IC50
Experimental: as §3

MAP kinase [7] = experiment: Whole cell MAP kinase assay, 3T3-L1 cells stimulated with insulin; assay type: cell-based, murine
Experimental: Cells were then serum-deprived overnight. Cells were exposed to the desired concentrations of compound or vehicle (DMSO) for 30 minutes, followed by addition of a growth factor, e.g., PDGF (100 ng/mL). After a 5-minute treatment with the growth factor, cells were washed with PBS, then lysed in a buffer consisting of 70 mM NaCl, 10 mM HEPES (pH 7.4), 50 mM glycerol phosphate, and 1% Triton X-100. Lysates were clarified by centrifugation at 13,000×g for 10 minutes. Five micrograms of the resulting supernatants were incubated with 10 μg microtubule associated protein-2 (Map2) for 15 minutes at 30° C. in a final volume of 25 μL containing 50 mM Tris (pH 7.4), 10 mM MgCl2, 2 mM EGTA and 30 μM [γ-^32 P]ATP. Reactions were terminated by addition of Laemmli sample buffer.

Balb 3T3 = experiment: 3H-Thymidine incorporation, PDGF-stimulated, Balb 3T3; assay type: cell-based; settings: Mus musculus; Balb 3T3, PDGF-stimulated
Experimental: as §2

K562 [8] = experiment: Growth in soft-agar, K562; assay type: cell-based; settings: Homo sapiens; K562, anchorage independent (soft agar clonogenicity)
Experimental: as §3

PDGFRβ Tyrosine kinase = PDGFRβ Tyrosine kinase (Homo sapiens, UniProt P09619); experiment: Kinase selectivity: PDGFRβ Tyrosine kinase; assay type: biochemical; settings: 50 μM concentration
EGFR/Swiss 3T3 [9] = experiment: Monolayer growth, EGFR/Swiss 3T3; assay type: cell-based; settings: EGFR/Swiss 3T3, anchorage dependent
Experimental: as §1

MEK [10] = target: T1, MEK; assay type: biochemical
[11] = target: E. coli histidine kinase NRII (Escherichia coli, UniProt P0AFB5); experiment: Kinase selectivity: E. coli histidine kinase NRII; assay type: biochemical; settings: 50 μM concentration
K-Ras/Balb [12] = experiment: Growth in soft-agar, K-Ras/Balb; assay type: cell-based; settings: Mus musculus, anchorage independent (soft agar clonogenicity)
Experimental: as §3

3T3-L1 adipocyte cells [13] = experiment: Insulin stimulated uptake of radiolabeled 2-deoxyglucose; assay type: cell-based, murine; settings: 10 μM concentration
MAP kinase [14] = experiment: Whole cell MAP kinase assay, PC-12 cells stimulated with NGF; assay type: cell-based; settings: Rattus norvegicus, read-out: IC50, activation of MAP kinase in whole cells
Experimental: To determine if compounds were able to block activation of MAP kinase in whole cells, the following protocol was used: Cells were plated in multi-well plates and grown to confluence. Cells were then serum-deprived overnight. Cells were exposed to the desired concentrations of compound or vehicle (DMSO) for 30 minutes, followed by addition of a growth factor, e.g., PDGF (100 ng/mL). After a 5-minute treatment with the growth factor, cells were washed with PBS, then lysed in a buffer consisting of 70 mM NaCl, 10 mM HEPES (pH 7.4), 50 mM glycerol phosphate, and 1% Triton X-100. Lysates were clarified by centrifugation at 13,000×g for 10 minutes. Five micrograms of the resulting supernatants were incubated with 10 μg microtubule associated protein-2 (Map2) for 15 minutes at 30° C. in a final volume of 25 μL containing 50 mM Tris (pH 7.4), 10 mM MgCl2, 2 mM EGTA and 30 μM [γ-^32 P]ATP. Reactions were terminated by addition of Laemmli sample buffer. Phosphorylated Map2 was resolved on 7.5% acrylamide gels and incorporated radioactivity determined by autoradiography and subsequent excision of the bands followed by scintillation counting.

RAF = RAF (Homo sapiens, UniProt P04049); experiment: Kinase selectivity: RAF; assay type: biochemical; settings: 50 μM concentration
PI-3 kinase = experiment: Kinase selectivity: PI-3 kinase; assay type: biochemical; settings: 50 μM concentration
K-Ras/NRK [15] = experiment: Growth in soft-agar, K-Ras/NRK; assay type: cell-based; settings: anchorage independent (soft agar clonogenicity)
Experimental: as §3

K562 [16] = experiment: Monolayer growth, K562; assay type: cell-based; settings: Homo sapiens; K562, anchorage dependent
Experimental: as §1

v-Raf/3Y1 [17] = experiment: Growth in soft-agar, v-Raf/3Y1; assay type: cell-based; settings: v-Raf/3Y1, anchorage independent (soft agar clonogenicity)
Experimental: as §3

v-Raf/3Y1 [18] = experiment: Monolayer growth, v-Raf/3Y1; assay type: cell-based; settings: v-Raf/3Y1, anchorage dependent
Experimental: as §1

3T3-L1 adipocyte cells [19] = experiment: Insulin-stimulated synthesis of glycogen; assay type: cell-based, murine; settings: 10 μM concentration
3T3-L1 adipocyte cells [20] = experiment: Insulin-stimulated synthesis of lipid; assay type: cell-based, murine; settings: 10 μM concentration
K-Ras/NRK [21] = experiment: Monolayer growth, K-Ras/NRK; assay type: cell-based; settings: anchorage dependent
Experimental: as §1

[22] = target: NGFR (trk-A) Tyrosine kinase (Homo sapiens, UniProt P04629); experiment: Kinase selectivity: NGFR (trk-A) Tyrosine kinase; assay type: biochemical; settings: 50 μM concentration
EGFR Tyrosine kinase = EGFR Tyrosine kinase (Homo sapiens, UniProt P00533); experiment: Kinase selectivity: EGFR Tyrosine kinase; assay type: biochemical; settings: 50 μM concentration
K-Ras/Balb [23] = experiment: Monolayer growth, K-Ras/Balb; assay type: cell-based; settings: Mus musculus, anchorage dependent
Experimental: as §1

T1 sequence (Q02750 whole entry, the tested form may be a part): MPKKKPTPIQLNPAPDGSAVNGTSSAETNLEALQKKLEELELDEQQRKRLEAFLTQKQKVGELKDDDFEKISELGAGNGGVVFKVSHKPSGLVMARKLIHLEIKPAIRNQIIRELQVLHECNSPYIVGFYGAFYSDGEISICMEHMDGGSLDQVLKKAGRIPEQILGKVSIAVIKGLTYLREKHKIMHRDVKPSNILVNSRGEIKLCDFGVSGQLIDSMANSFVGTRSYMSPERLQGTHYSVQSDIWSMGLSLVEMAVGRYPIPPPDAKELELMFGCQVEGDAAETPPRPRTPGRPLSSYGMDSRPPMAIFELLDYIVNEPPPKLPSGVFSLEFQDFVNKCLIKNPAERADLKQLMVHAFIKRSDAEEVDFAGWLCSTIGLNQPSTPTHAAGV
Sequence of EGFR Tyrosine kinase (P00533 25-1210): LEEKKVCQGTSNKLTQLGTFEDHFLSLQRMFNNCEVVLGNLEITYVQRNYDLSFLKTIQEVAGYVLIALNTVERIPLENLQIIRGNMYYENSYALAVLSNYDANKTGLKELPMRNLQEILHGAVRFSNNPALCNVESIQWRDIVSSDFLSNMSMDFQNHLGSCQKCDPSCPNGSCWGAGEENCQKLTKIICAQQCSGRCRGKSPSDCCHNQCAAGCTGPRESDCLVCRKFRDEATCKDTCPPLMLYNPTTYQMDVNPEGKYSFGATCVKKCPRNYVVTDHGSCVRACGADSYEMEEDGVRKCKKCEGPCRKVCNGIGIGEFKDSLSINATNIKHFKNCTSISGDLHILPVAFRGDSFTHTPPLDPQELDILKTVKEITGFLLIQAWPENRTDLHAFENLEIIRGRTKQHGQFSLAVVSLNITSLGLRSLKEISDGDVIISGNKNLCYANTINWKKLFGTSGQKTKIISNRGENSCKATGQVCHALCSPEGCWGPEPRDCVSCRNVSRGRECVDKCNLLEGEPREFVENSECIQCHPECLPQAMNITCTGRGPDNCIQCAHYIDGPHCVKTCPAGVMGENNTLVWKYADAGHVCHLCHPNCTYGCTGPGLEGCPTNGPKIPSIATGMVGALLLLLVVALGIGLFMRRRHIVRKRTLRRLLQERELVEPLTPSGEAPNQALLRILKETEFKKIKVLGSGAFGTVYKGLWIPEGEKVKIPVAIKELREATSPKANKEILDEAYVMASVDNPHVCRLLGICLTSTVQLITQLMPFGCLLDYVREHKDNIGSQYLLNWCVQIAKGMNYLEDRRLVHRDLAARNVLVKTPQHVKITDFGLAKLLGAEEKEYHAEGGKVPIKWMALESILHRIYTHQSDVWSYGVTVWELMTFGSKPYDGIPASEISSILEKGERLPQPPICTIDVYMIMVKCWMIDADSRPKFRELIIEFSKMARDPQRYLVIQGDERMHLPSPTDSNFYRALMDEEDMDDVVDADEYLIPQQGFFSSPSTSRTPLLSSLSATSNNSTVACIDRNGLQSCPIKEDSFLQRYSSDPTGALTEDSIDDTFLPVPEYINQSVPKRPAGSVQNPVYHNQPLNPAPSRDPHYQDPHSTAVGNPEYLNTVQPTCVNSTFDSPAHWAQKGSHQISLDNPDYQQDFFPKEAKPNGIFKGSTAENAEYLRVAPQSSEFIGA
Sequence of v-Src (P00524 2-526): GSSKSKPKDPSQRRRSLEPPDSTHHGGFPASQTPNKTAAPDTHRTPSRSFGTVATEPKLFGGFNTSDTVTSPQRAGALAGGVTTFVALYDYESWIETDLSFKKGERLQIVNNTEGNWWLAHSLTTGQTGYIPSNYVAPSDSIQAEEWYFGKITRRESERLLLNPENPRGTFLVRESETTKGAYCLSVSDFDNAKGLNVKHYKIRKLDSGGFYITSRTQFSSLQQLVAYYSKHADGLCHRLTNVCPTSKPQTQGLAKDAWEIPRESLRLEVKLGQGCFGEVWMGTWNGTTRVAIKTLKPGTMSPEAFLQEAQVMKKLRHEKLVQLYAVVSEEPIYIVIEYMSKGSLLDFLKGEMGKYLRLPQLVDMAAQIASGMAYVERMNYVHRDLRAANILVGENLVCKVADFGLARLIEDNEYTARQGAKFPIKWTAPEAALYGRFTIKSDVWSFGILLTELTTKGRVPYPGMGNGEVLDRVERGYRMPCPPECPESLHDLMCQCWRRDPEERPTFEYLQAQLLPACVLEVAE
Sequence of E. coli histidine kinase NRII (P0AFB5 whole entry): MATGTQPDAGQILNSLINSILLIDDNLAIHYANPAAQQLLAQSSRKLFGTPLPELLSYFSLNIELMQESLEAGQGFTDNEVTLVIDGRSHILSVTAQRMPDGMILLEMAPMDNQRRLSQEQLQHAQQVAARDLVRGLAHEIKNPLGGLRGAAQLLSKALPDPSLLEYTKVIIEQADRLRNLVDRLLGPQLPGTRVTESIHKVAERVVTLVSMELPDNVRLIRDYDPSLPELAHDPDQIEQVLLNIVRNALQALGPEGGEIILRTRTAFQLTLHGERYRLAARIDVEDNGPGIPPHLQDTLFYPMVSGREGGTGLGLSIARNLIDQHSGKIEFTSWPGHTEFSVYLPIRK
Sequence of NGFR (trk-A) Tyrosine kinase (P04629 33-796, species assumed): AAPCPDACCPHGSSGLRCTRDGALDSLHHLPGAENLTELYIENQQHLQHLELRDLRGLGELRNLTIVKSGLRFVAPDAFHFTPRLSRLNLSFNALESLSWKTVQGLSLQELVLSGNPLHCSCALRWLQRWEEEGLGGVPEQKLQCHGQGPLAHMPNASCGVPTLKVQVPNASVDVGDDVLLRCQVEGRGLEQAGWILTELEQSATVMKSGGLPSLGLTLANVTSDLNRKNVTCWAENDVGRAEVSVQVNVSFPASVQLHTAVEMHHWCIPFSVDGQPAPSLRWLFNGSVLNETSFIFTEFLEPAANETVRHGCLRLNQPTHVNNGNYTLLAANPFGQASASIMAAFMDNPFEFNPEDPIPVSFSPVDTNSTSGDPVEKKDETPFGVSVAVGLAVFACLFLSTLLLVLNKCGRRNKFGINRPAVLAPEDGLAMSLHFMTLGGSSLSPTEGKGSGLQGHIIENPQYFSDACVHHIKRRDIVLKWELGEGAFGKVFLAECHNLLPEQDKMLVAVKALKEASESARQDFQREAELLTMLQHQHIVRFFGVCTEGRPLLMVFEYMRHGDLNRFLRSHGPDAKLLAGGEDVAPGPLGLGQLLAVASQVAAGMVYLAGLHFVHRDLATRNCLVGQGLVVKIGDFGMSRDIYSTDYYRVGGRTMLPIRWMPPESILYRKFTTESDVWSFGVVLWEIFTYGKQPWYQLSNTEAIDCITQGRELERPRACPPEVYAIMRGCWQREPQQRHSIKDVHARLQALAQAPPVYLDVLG
Sequence of RAF (P04049 whole entry): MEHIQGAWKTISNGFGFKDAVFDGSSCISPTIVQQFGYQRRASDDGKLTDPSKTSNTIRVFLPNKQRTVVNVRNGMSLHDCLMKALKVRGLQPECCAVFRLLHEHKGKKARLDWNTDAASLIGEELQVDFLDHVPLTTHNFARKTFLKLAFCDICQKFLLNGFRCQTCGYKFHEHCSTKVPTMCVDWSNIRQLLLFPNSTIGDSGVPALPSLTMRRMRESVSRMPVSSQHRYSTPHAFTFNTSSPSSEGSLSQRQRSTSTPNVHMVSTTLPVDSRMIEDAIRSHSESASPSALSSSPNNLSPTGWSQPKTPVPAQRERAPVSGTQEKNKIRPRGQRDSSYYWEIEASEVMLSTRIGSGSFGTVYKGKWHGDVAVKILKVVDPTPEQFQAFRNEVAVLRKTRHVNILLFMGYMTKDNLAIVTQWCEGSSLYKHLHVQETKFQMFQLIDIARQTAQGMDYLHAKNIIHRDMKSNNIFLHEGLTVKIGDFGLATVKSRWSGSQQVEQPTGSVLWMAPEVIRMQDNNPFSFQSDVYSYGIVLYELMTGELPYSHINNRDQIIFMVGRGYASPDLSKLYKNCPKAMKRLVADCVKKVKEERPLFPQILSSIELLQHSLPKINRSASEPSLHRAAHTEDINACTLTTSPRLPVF
Sequence of PDGFRβ Tyrosine kinase (P09619 33-1106): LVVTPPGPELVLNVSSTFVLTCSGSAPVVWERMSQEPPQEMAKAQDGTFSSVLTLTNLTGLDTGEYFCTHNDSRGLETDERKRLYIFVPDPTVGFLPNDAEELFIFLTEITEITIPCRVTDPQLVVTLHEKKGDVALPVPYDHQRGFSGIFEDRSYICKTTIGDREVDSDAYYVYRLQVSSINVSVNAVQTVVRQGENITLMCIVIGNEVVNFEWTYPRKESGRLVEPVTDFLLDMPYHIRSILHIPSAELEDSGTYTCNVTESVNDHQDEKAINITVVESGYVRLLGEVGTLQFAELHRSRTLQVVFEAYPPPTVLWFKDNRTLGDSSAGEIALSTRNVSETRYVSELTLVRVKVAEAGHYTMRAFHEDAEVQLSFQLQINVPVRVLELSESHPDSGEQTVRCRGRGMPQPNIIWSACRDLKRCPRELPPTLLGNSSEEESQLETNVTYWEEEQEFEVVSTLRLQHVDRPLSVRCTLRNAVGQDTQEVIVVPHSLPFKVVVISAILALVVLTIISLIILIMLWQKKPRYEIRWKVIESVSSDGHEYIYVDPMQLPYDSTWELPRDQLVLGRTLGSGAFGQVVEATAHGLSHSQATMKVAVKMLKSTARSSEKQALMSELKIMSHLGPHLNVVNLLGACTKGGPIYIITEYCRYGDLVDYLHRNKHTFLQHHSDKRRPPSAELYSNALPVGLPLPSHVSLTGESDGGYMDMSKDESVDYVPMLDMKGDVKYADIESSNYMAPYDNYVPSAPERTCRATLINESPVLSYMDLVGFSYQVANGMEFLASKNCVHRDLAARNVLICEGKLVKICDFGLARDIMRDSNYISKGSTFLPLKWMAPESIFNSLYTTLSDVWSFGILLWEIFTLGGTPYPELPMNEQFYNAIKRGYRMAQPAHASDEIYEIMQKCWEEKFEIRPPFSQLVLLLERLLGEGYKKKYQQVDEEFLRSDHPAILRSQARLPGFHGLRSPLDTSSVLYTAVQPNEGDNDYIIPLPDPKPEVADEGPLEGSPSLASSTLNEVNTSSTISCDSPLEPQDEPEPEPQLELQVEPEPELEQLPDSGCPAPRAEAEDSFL

COc1cccc(-c2cc(=O)c3ccccc3o2)c1N [invention compound, 2-(2-amino-3-methoxyphenyl)-4-oxo-4H-[1]benzopyran]
IC50 (RSV/RAT-1 [1]): > 100 µM | IC50 (K-Balb 3T3): 10 µM | inhibition of Protein kinase C [2]: does not appreciably inhibit | inhibition of v-Src (v-Src): does not appreciably inhibit | enzyme inhibited in the cascade (MEK or MAP kinase) (MEK [3]): inhibiting MEK and not MAP kinase | IC50 (EGFR/Swiss 3T3 [4]): > 100 µM | inhibition of MAP kinase (MAP kinase [5]): does not appreciably inhibit | IC50 (RSV/RAT-1 [6]): 60 µM | IC50 (MAP kinase [7]; Mus musculus, 3T3-L1 cells stimulated with insulin, read-out: IC50, activation of MAP kinase in whole cells): 3 µM | activation of insulin stimulated MAP kinase (MAP kinase [7]; murine 3T3-L1 adipocytes, insulin): does inhibit | IC50 (Balb 3T3): 8 µM | IC50 (K562 [8]): 60 µM | inhibition of PDGFRβ Tyrosine kinase (PDGFRβ Tyrosine kinase): does not appreciably inhibit | IC50 (EGFR/Swiss 3T3 [9]): > 100 µM | competition with ATP (kinetic analysis) (MEK [10]): not competitive with ATP | inhibition of E. coli histidine kinase NRII [11]: does not appreciably inhibit | IC50 (K-Ras/Balb [12]): 1.5 µM | effect on insulin stimulated uptake of radiolabeled 2-deoxyglucose (3T3-L1 adipocyte cells [13]): does not affect | effect on insulin stimulated uptake of radiolabeled 2-deoxyglucose (3T3-L1 adipocyte cells [13]; listed as compound): no effect | IC50 (MAP kinase [14]): 7 µM | inhibition of RAF (RAF): does not appreciably inhibit | inhibition of PI-3 kinase (PI-3 kinase): does not appreciably inhibit | IC50 (K-Ras/NRK [15]): 2 µM | IC50 (K562 [16]): > 100 µM | IC50 (v-Raf/3Y1 [17]): 4.5 µM | IC50 (v-Raf/3Y1 [18]): 50 µM | effect on insulin-stimulated synthesis of glycogen (3T3-L1 adipocyte cells [19]): does not affect | effect on insulin-stimulated synthesis of glycogen (3T3-L1 adipocyte cells [19]; listed as compound): no effect | effect on insulin-stimulated synthesis of lipid (3T3-L1 adipocyte cells [20]): does not affect | effect on insulin-stimulated synthesis of lipid (3T3-L1 adipocyte cells [20]; listed as compound): no effect | IC50 (K-Ras/NRK [21]): 40 µM | inhibition of NGFR (trk-A) Tyrosine kinase [22]: does not appreciably inhibit | inhibition of EGFR Tyrosine kinase (EGFR Tyrosine kinase): does not appreciably inhibit | IC50 (K-Ras/Balb [23]): 25 µM
